Data taken from patent US11369595B2, “Use of tryptophan metabolites for treating muscle atrophy” (METABRAIN RESEARCH, priority 2016, dated 2022).

Experiments:
[1] = test system: C2C12 muscle cells; test: Measurement of protein synthesis in C2C12 cells (radio-labeled leucine incorporation); type: cell-based; conditions: for effect on protein synthesis in C2C12 muscle cells: 150 min incubation, radio-labeled leucine, versus DMSO control
Protocol: The cells are counted and seeded at the density of 20 000 cells per well in a 24-well plate in DMEM medium containing glucose in a proportion of 4.5 g/l and supplemented with fetal calf serum (10%) and with antibiotics (penicillin and streptomycin). Forty-eight hours layer, the myoblasts are induced to differentiate by partial serum deprivation (2% instead of 10%) for 5 days. The cells are then placed in medium without glucose or leucine (Krebs medium) for 1 h at 37° C., then incubated for 150 min in the presence of the products to be tested (DMSO (control), kynurenic acid or anthranilic acid or quinolinic acid or picolinic acid or 3OH-kynurenine) or reference (IGF-1, 100 ng/ml) in serum-free DMEM medium containing 2.5 μCi/ml radio-labeled leucine. At the end of the incubation, the supernatants are removed and the cells are lysed in 0.1N NaOH solution for 30 min. The radioactivity is measured in the cell fraction and the total amount of proteins is determined by assaying according to the Lowry method. Each condition is evaluated at least with n=6; IGF-1, 100 ng/ml is our control for stimulating protein synthesis. The results are expressed in cpm/μg of proteins after 150 min of incubation or as a percentage relative to the control condition. The results are expressed as % of the control and a statistical test is carried out: Dunnett's or Dun test (*p<0.05, **p<0.01, ***p<0.001 versus control). The results obtained with kynurenic acid, anthranilic acid, quinolinic acid, picolinic acid and 3OH-kynurenin are represented in FIGS. 1 to 5.

[2] = test system: loss of muscle mass; conditions: mice on a protein-poor diet, supplementation; cited from earlier work
[3] = test system: C2C12 muscle fibers; test: Evaluation of the diameter of the C2C12 muscle fibers; type: cell-based; conditions: incubation for 3 days, 100 μM
Protocol: The C2C12 myoblast cells (ATCC CRL-1772) are seeded in 8-well plates treated with glycerol, at the density of 10 000 cells per well and cultured in DMEM medium containing glucose in a proportion of 4.5 g/l and supplemented with fetal calf serum (10%) and with antibiotics (penicillin and streptomycin). Forty-eight hours layer, the myoblasts are induced to differentiate by partial serum deprivation (2% instead of 10%) for 3 days. The cells are then placed in a serum-free, glucose-depleted medium (DMEM containing 1 g/l of glucose) in the presence of the molecules to be tested (DMSO (control) or kynurenic acid) or the references (IGF-1 at the concentration of 10 ng/ml or dexamethasone at 10 μM) for 3 days. At the end of the culture, the cells are rinsed and fixed using a 2.5% glutaraldehyde/0.1% triton solution for 1 h at ambient temperature. The cell layer is covered with DAPI (fluorescent labeling of the cell nucleus). After storage in the dark for 16 h in the cold, the slides are observed under a fluorescence microscope (Carl Zeiss, AxioVert 200) and the images are analyzed using the Axiovision 4.1 software for measuring the diameter of the fibers. A representative image of each condition is shown. A statistical test is carried out: Dunnett's or Dun test (*p<0.05, **p<0.01, ***p<0.001 versus control). The results obtained with kynurenic acid are represented in FIG. 7.

[4] = test system: myostatin gene expression in C2C12 muscle cells; test: Measurement of myostatin gene expression in C2C12 cells (RT-qPCR); type: cell-based; conditions: 6 hours of incubation, standardized to beta-actin
Protocol: The C2C12 myoblast cells (ATCC CRL-1772) are seeded in 24-well plates at the density of 30 000 cells per well and cultured in a DMEM medium containing glucose in a proportion of 4.5 g/l and supplemented with fetal calf serum (10%) and with antibiotics (penicillin and streptomycin). Forty-eight hours later, the myoblasts are induced to differentiate by partial serum deprivation (2% instead of 10%) for 5 days. The cells are then placed in a serum-free, glucose-depleted medium (DMEM containing 1 g/l of glucose) in the presence of the molecules to be tested (DMSO (control) or IGF-1 (100 ng/ml) or kynurenic acid) or of the references (IGF-1 at the concentration of 100 ng/ml) for 6 h. […] The samples analyzed all contain […] of cDNA, a qPCR buffer including the enzyme, the oligonucleotide mixture and the intercalating agent (sybergreen), and the pair of primers specific for the gene studied, strategically chosen between two exon sequences and at the final concentration of 200 nM. […] A fluorescence threshold is established by the program of the machine. […] It is this value which forms the basis for the calculations to relatively quantify the DNA. […] The primers used are given in table 1 below: At the end of the incubation, the expression of the myostatin gene is measured by RT-qPCR and standardized using the beta-actin housekeeping gene. […]

[5] = test system: muscle atrophy induced by immobilization; test: Muscle atrophy induced by immobilization in mice; type: in vivo; conditions: CD1 mice, 7 days immobilization, 3 mg/kg per day in the drinking water, compared with control group
Description: Limb immobilization is known to induce skeletal muscle atrophy involving mechanisms linked to protein degradation, to a change in muscle fiber types, to oxidative stress or inflammatory mechanisms. Briefly, male 8-9-week-old CD1 mice were used in this study. The foot of the left hindlimb was immobilized for 7 days according to the procedure described by Caron et al. (2009), in the dorso-tibial flexion position, by means of a surgical staple. The other foot (right hindlimb) is used as a control. For the duration of the immobilization, one group of animals (n=12) received a treatment with kynurenic acid (3 mg/kg per day) in the drinking water. Another group of animals served as a control (n=16 animals). At the end of the 7 days of study, the animals were sacrificed in order to remove the Tibialis anterial muscle from the two hindlimbs. For each animal, the difference between the weight of the muscle of the immobilized limb and the free limb is calculated, then related back to the bodyweight. The results are expressed as weight loss of the immobilized limb relative to the control limb (in mg per g of body weight), and a statistical test is carried out: Student's test (*p<0.05, **p<0.01, ***p<0.001 versus control group).

Compound: Nc1c(O)cccc1C(=O)C[C@H](N)C(=O)O [3OH-kynurenine, reference compound]
- effect on protein synthesis in C2C12 muscle cells [1]: no effect on protein synthesis

Compound: Nc1ccccc1C(=O)C[C@H](N)C(=O)O [L-kynurenine]
- effect on loss of muscle mass [2]: varies according to the dose tested (beneficial or negative)

Compound: N[C@@H](Cc1c[nH]c2ccccc12)C(=O)O [TRP, Tryptophan]
- effect on loss of muscle mass [2]: capable of reducing the loss of muscle mass

Compound: Nc1ccccc1C(=O)O [anthranilic acid]
- effect on protein synthesis in C2C12 muscle cells [1]: significantly induce protein synthesis

Compound: O=C(O)c1cc(=O)c2ccccc2[nH]1 [kynurenic acid]
- effect on protein synthesis in C2C12 muscle cells [1]: significantly induce protein synthesis
- dose dependence of stimulation of protein synthesis ([1]; after 150 min of incubation): dose-dependent stimulation of protein synthesis
- size (diameter) of the C2C12 muscle fibers [3]: increase in the size of the C2C12 muscle fibers
- myostatin gene expression [4]: significant dose-dependent inhibition
- loss of muscle (Tibialis anterior) mass induced by immobilization [5]: significantly decreases the loss of muscle

Compound: O=C(O)c1ccccn1 [picolinic acid]
- effect on protein synthesis in C2C12 muscle cells [1]: significantly induce protein synthesis

Compound: O=C(O)c1cccnc1C(=O)O [quinolinic acid]
- effect on protein synthesis in C2C12 muscle cells [1]: significantly induce protein synthesis
